Laboratory results as given in patent US20240376094A2, “SELECTIVE BCL-XL PROTAC COMPOUNDS AND METHODS OF USE” (Les Laboratoires Servier, priority 2021, published 2024).

Legend:
Type in all cases: cell-based
COR-L105 = assay: CellTiter-Glo proliferation assay, COR-L105; conditions: Homo sapiens, COR-L105, 120 h, COR-L105, 5 days; for Emax: read-out: COR-L105 Span (max)
Experimental: (§1) The BCL-xL degrader compounds were tested against two endogenous cancer cell lines: • COR-L105: ECACC No. 92031918 cultured in RPMI-1640+10% FBS • NCI-H1650: (ATCC No. CRL-5883 cultured in RPMI-1640+10% FBS
(§2) The ability of the BCL-xL degrader low molecular weight compounds to inhibit cell proliferation and survival was assessed using the Promega CellTiter-Glo® proliferation assay.
(§3) Cell lines were cultured in media that is optimal for their growth at 5% CO2, 37° C. in a tissue culture incubator. Prior to seeding for the proliferation assay, the cells were split at least 2 days before the assay to ensure optimal growth density. On the day of seeding, adherent cells were lifted off tissue culture flasks using 0.25% trypsin. Cell viability and cell density were determined using a cell counter (Vi-Cell XR Cell Viability Analyzer, Beckman Coulter). Cells with higher than 85% viability were seeded for the assay.
(§4) The COR-105 cell line was seeded in white, clear bottom 384-well TC treated plates (Corning cat. #3765). Cells were seeded at a density of 1,000 cells per well in 45 μL of standard growth media. Plates were incubated at 5% CO2, 37° C. overnight in a tissue culture incubator. The NCI-H1650 cell line was seeded in black, clear round bottom 384-well ultra-low attachment spheroid microplates (Corning cat. #3830). Cells were seeded at a density of 3,000 cells per well in 45 uL of standard growth media. Plates were spun in a centrifuge for 5 minutes and 1,000 RPM. Plates were incubated at 5% CO2, 37° C. for 72 hours in a tissue culture incubator.
(§5) On the day of dosing, BCL-xL degrader low molecular weight compounds were prepared at 1 OX in standard growth media. The prepared drug treatments were then added to the cells resulting in final concentrations of 0.508 nM-10 μM and a final volume of 50 μL per well. Each drug concentration was tested in quadruplets. Plates were incubated at 5% CO2, 37° C. for 5 days in a tissue culture incubator.
(§6) For COR-L105 plates, cell viability was assessed through the addition of 25 μL of CellTiter Glo® (Promega, cat #G7573), a reagent which lyses cells and measures total adenosine triphosphate (ATP) content. Plates were incubated at room temperature for 10 minutes to stabilize luminescent signals prior to reading with a luminescence reader (EnVision Multilabel Plate Reader, PerkinElmer). For NCI-H1650 plates, cell viability was assessed through the addition of 40 μL of CellTiter Glo® 3D Cell Viability Assay substrate (Promega, cat #G9681), a reagent which lyses cells and measures total adenosine triphosphate (ATP) content. Wells were mixed thoroughly and plates were incubated at room temperature for 30 minutes to stabilize luminescent signals prior to reading using a luminescence reader (EnVision Multilabel Plate Reader, PerkinElmer).
(§7) To evaluate the effect of the drug treatments, luminescent counts from wells containing untreated cells (100% viability) were used to normalize treated samples. A variable slope model was applied to fit a nonlinear regression curve to the data in GraphPad PRISM version 7.02 software. IC50 and Amax values were extrapolated from the resultant curves. The concentrations of treatment required to inhibit 50% of cell growth or survival (IC50) were calculated with representative IC50 values of the cell lines tested summarized in Table 11.

NCI-H1650 = assay: CellTiter-Glo 3D proliferation assay, NCI-H1650 spheroids; conditions: Homo sapiens, NCI-H1650, 120 h, 5 days; for Emax: read-out: NCI-H1650 Span (Amax)
Experimental: as §1, §2, §3, §4, §5, §6, §7

endogenous BCL-xL = target: T1, endogenous BCL-xL (Homo sapiens, UniProt Q07817); assay: Degradation of endogenous BCL-xL in COR-L105 (ProteinSimple Jess); conditions: COR-L105, 24 h, COR-L105, dose 300 nM, read-out: % BCL-xL vs. Untreated, COR-L105
T1 construct: endogenous in cells; host or cells: COR-L105 (ECACC No. 92031918); NCI-H1650 (ATCC No. CRL-5883)
Experimental: The BCL-xL degrader low molecular weight compounds were tested against two endogenous cancer cell lines: • COR-L105: ECACC No. 92031918 cultured in RPMI-1640+10% FBS • NCI-H1650: (ATCC No. CRL-5883 cultured in RPMI-1640+10% FBS
The ability of the BCL-xL degrader low molecular weight compounds to degrade endogenous BCL-xL was assessed using the ProteinSimple 2-40 kDa Jess Separation Module.
as §3, with “degradation” for “proliferation”
The COR-L105 and the NCI-H1650 cell line were seeded in 6-well clear TC-treated multiple well plates (Costar® cat. #3516). Cells were seeded at a density of 2,000,000 cells per well in 2.5 mL of standard growth media. Plates were incubated at 5% CO2, 37° C. overnight in a tissue culture incubator. On the day of dosing, BCL-xL degrader low molecular weight compounds and a BCL-xL inhibitor control were prepared at 6× in standard growth media. The prepared drug treatments were then added to the cells resulting in a final concentration of 100-300 nM and a final volume of 3.0 mL per well. A control well of untreated cells was also included in the study. Each drug concentration was tested in singlet. Plates were incubated at 5% CO2, 37° C. for 24 hours in a tissue culture incubator.
After 24 hours, the adherent cells were lifted off tissue culture plates using 0.25% trypsin. Standard growth media was added to quench the trypsin and centrifuged for 5 minutes at 1500 rpm. Cell pellets were washed once with cold PBS and centrifuged for 5 minutes at 1500 rpm. Cells were then washed with 1 mL cold PBS and transferred to a 1.5 mL eppendorf tube. Cells were centrifuged for 10 minutes at ≥10,000 g at 4° C. in a benchtop mini-centrifuge. The entire supernatant was discarded and cells were resuspended thoroughly in 50 μL of RIPA lysis buffer, generated by the manufacturer's protocol (ProteinSimple, Cat. #CBS401: Lysis Kit—RIPA Buffer for Charge Assays). Lysates were incubated on ice for 30 minutes. Following incubation, lysates were spun in a benchtop mini-centrifuge for 15 minutes at full speed at 4° C. Supernatant was carefully transferred to a new eppendorf tube for downstream analysis.
Protein was quantified using a Pierce™ BCA Protein Assay Kit (ThermoFisher, cat #23225) following the manufacturer's instructions. A standard curve was prepared by adding 25 μL of each concentration of reference samples from a Pierce™ Bovine Serum Albumin Standard Pre-Diluted Set (ThermoFisher, cat #23208). Each reference sample was run in duplicate. Testing samples were prepared by diluting cell lysates 1:5 in UltraPure™ DNase/RNase-Free Distilled Water and tested in duplicates of 25 μL each. The BCA working reagent was prepared by addition of 50 parts of BCA Reagent A with 1 part of BCA Reagent B. For each testing well, 200 μL of BCA working reagent was added. The plate was incubated at 37° C. for 30 minutes. A SpectraMax M Series Multi-Mode Microplate Reader was used to measure the absorbance at 562 nm. A standard curve generated by the Pierce™ Bovine Serum Albumin Standard Pre-Diluted Set was used to normalize and calculate the BCA concentration of cell lysates. Only values that fell within the range of the standard curve were accepted for quantification.
The ProteinSimple 2-40 kDa Jess Separation Module was used to detect BCL-xL degradation in treated versus untreated lysates following the manufacturer's instructions (25-Capillary Cartridge, 8 pack, 2-40 kDa, cat #SM W012). […]

T1 sequence (Q07817 whole entry): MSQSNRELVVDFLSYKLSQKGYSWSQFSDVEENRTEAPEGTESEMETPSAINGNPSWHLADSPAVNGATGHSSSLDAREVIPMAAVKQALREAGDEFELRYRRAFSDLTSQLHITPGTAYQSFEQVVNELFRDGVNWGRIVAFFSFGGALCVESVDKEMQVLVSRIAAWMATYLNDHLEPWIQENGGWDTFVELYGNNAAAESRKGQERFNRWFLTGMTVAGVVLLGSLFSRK

Row | Structure (SMILES) | IC50 (COR-L105) | Emax (COR-L105) | IC50 (NCI-H1650) | Emax (NCI-H1650) | remaining activity at 0.3 µM (endogenous BCL-xL)
1 | Cc1ncsc1-c1ccc(CNC(=O)[C@@H]2C[C@@H](O)CN2C(=O)[C@@H](NC(=O)COCCOCCOCC(=O)N2CCN(CC#Cc3ccc(OCCCc4sc(N5CCCc6c5nnc(Nc5nc7ccccc7s5)c6C)nc4C(=O)O)c(F)c3)CC2)C(C)(C)C)cc1 [Example 40, 2-(3-(benzo[d]thiazol-2-ylamino)-4-methyl-6,7-dihydropyrido [2,3-c]pyridazin-8(5H)-yl)-5-(3-(2-fluoro-4-(3-(4-((S)-13-((2S,4R)-4-hydroxy-2-((4-(4-methylthiazol-5-yl)benzyl)carbamoyl)pyrrolidine-1-carbonyl)-14,14-dimethyl-11-oxo-3,6,9-trioxa-12-azapentadecanoyl)piperazin-1-yl)prop-1-yn-1-yl)phenoxy)propyl)thiazole-4-carboxylic acid] | 0.107 µM | 82.1% | 0.0156 µM | 87.3% | 71.4%
2 | Cc1ncsc1-c1ccc([C@H](C)NC(=O)[C@@H]2C[C@@H](O)CN2C(=O)[C@@H](NC(=O)CSCC(=O)N2CCN(CC#Cc3ccc(OCCCc4sc(N5CCCc6c5nnc(Nc5nc7ccccc7s5)c6C)nc4C(=O)O)c(F)c3)CC2)C(C)(C)C)cc1 [Example 37, 2-(3-(benzo[d]thiazol-2-ylamino)-4-methyl-6,7-dihydropyrido [2,3-c]pyridazin-8(5H)-yl)-5-(3-(2-fluoro-4-(3-(4-(2-((2-(((S)-1-((2S,4R)-4-hydroxy-2-(((S)-1-(4-(4-methylthiazol-5-yl)phenyl)ethyl)carbamoyl)pyrrolidin-1-yl)-3,3-dimethyl-1-oxobutan-2-yl)amino)-2-oxoethyl)thio)acetyl)piperazin-1-yl)prop-1-yn-1-yl)phenoxy)propyl)thiazole-4-carboxylic acid] | 0.623 µM | 88.5% | 0.0397 µM | 107% | 82.4%
3 | Cc1ncsc1-c1ccc([C@H](C)NC(=O)[C@@H]2C[C@@H](O)CN2C(=O)[C@@H](NC(=O)CCCCCCCCN2CCN(CC#Cc3ccc(OCCCc4sc(N5CCCc6c5nnc(Nc5nc7ccccc7s5)c6C)nc4C(=O)O)c(F)c3)CC2)C(C)(C)C)cc1 [Example 52, 2-(3-(benzo[d]thiazol-2-ylamino)-4-methyl-6,7-dihydropyrido [2,3-c]pyridazin-8(5H)-yl)-5-(3-(2-fluoro-4-(3-(4-(9-(((S)-1-((2S,4R)-4-hydroxy-2-(((S)-1-(4-(4-methylthiazol-5-yl)phenyl)ethyl)carbamoyl)pyrrolidin-1-yl)-3,3-dimethyl-1-oxobutan-2-yl)amino)-9-oxononyl)piperazin-1-yl)prop-1-yn-1-yl)phenoxy)propyl)thiazole-4-carboxylic acid] | 0.00993 µM | 80.6% | 0.00282 µM | 60.8% | 28.6%
4 | Cc1ncsc1-c1ccc([C@H](C)NC(=O)[C@@H]2C[C@@H](O)CN2C(=O)[C@@H](NC(=O)C2CC3(C2)CC(C(=O)N2CCN(CC#Cc4ccc(OCCCc5sc(N6CCCc7c6nnc(Nc6nc8ccccc8s6)c7C)nc5C(=O)O)c(F)c4)CC2)C3)C(C)(C)C)cc1 (stereo partly drawn) [Example 41, 2-(3-(benzo[d]thiazol-2-ylamino)-4-methyl-6,7-dihydropyrido [2,3-c]pyridazin-8(5H)-yl)-5-(3-(2-fluoro-4-(3-(4-(6-(((S)-1-((2S,4R)-4-hydroxy-2-(((S)-1-(4-(4-methylthiazol-5-yl)phenyl)ethyl)carbamoyl)pyrrolidin-1-yl)-3,3-dimethyl-1-oxobutan-2-yl)carbamoyl)spiro[3.3]heptane-2-carbonyl)piperazin-1-yl)prop-1-yn-1-yl)phenoxy)propyl) thiazole-4-carboxylic acid] | 0.22 µM | 88.2% | 0.00883 µM | 106% | 30.3%
5 | Cc1ncsc1-c1ccc(CNC(=O)[C@@H]2C[C@@H](O)CN2C(=O)[C@@H](NC(=O)C2(F)CC2)C(C)(C)C)c(OCC(=O)NCCCCC(=O)N2CCN(CC#Cc3ccc(OCCCc4sc(N5CCCc6c5nnc(Nc5nc7ccccc7s5)c6C)nc4C(=O)O)c(F)c3)CC2)c1 [Example 44, 2-(3-(benzo[d]thiazol-2-ylamino)-4-methyl-6,7-dihydropyrido [2,3-c]pyridazin-8(5H)-yl)-5-(3-(2-fluoro-4-(3-(4-(5-(2-(2-(((2S,4R)-1-((S)-2-(1-fluorocyclopropane-1-carboxamido)-3,3-dimethylbutanoyl)-4-hydroxypyrrolidine-2-carboxamido)methyl)-5-(4-methylthiazol-5-yl)phenoxy)acetamido)pentanoyl)piperazin-1-yl)prop-1-yn-1-yl)phenoxy)propyl)thiazole-4-carboxylic acid] |  |  |  |  | 58.3%
